Source: ChEMBL document CHEMBL1124028, “Synthesis and antiviral activity of various 3'-azido analogues of pyrimidine deoxyribonucleosides against human immunodeficiency virus (HIV-1, HTLV-III/LAV)” (J Med Chem, 1988)

Test system: Human immunodeficiency virus 1
Experiment: Inhibition of HIV-1 replication in human peripheral blood mononuclear cells.
Format: functional, organism-based

First: [N-]=[N+]=N[C@H]1C[C@H](n2cc(C(F)(F)F)c(=O)[nH]c2=O)O[C@@H]1CO
Second: [N-]=[N+]=N[C@H]1C[C@H](n2cc(F)c(=O)[nH]c2=O)O[C@@H]1CO
The EC50 of the first is higher: over 100 µM for the first, 4.8 µM for the second. The second is the more potent here.

`[N-]=[N+]=N[C@H]1C[C@H](n2cc(Br)c(=O)[nH]c2=O)O[C@@H]1CO` and `[N-]=[N+]=N[C@@H]1CC(n2cc(I)c(=O)[nH]c2=O)O[C@@H]1CO` (some centres not stated) are within 1.5-fold of each other in EC50: 1 µM for the first, 1.1 µM for the second.

Compared with `Cc1cn([C@H]2C[C@H](N=[N+]=[N-])[C@@H](CO)O2)c(=O)nc1N`, `[N-]=[N+]=N[C@H]1C[C@H](n2cc(F)c(N)nc2=O)O[C@@H]1CO` is 5.1-fold lower in EC50: 5.1 µM for the first, 1 µM for the second.

Compared with `[N-]=[N+]=N[C@H]1C[C@H](n2ccc(N)nc2=O)O[C@@H]1CO`, `[N-]=[N+]=N[C@H]1C[C@H](n2ccc(=O)[nH]c2=O)O[C@@H]1CO` [NAVURIDINE] is 6-fold lower in EC50: 1.2 µM for the first, 0.2 µM for the second. The second is the more potent here.

`COc1cn([C@H]2C[C@H](N=[N+]=[N-])[C@@H](CO)O2)c(=O)[nH]c1=O` and `CCOc1cn([C@H]2C[C@H](N=[N+]=[N-])[C@@H](CO)O2)c(=O)[nH]c1=O` are within 1.5-fold of each other in EC50: 70 µM for the first, 54 µM for the second.

First: CSc1cn([C@H]2C[C@H](N=[N+]=[N-])[C@@H](CO)O2)c(=O)[nH]c1=O
Second: N#CSc1cn([C@H]2C[C@H](N=[N+]=[N-])[C@@H](CO)O2)c(=O)[nH]c1=O
The EC50 of the first is higher: over 100 µM for the first, 5.1 µM for the second.

First: [N-]=[N+]=N[C@H]1C[C@H](n2cc(O)c(=O)[nH]c2=O)O[C@@H]1CO
Second: [N-]=[N+]=N[C@H]1C[C@H](n2cc(N)c(=O)[nH]c2=O)O[C@@H]1CO
The EC50 of the first is 1.6-fold higher: about 10 µM for the first, 6.2 µM for the second. The second is the more potent here.

First: Cc1nn([C@H]2C[C@H](N=[N+]=[N-])[C@@H](CO)O2)c(=O)[nH]c1=O
Second: Cc1cn([C@H]2C[C@H](N=[N+]=[N-])[C@@H](CO)O2)c(=O)[nH]c1=O [ZIDOVUDINE]
The EC50 of the first is higher: over 100 µM for the first, 0.002 µM for the second. The second is the more potent here.

First: Cc1cn([C@H]2C[C@H](N=[N+]=[N-])[C@@H](CO)O2)c(=O)n(/C=C/C=O)c1=O
Second: CNc1cn([C@H]2C[C@H](N=[N+]=[N-])[C@@H](CO)O2)c(=O)[nH]c1=O
The EC50 of the first is lower: 0.01 µM for the first, over 100 µM for the second.

First: N#CCOc1cn([C@H]2C[C@H](N=[N+]=[N-])[C@@H](CO)O2)c(=O)[nH]c1=O
Second: C#CCOc1cn([C@H]2C[C@H](N=[N+]=[N-])[C@@H](CO)O2)c(=O)[nH]c1=O
The EC50 of the first is 2.4-fold lower: 16 µM for the first, 38 µM for the second.

`C=CCOc1cn([C@H]2C[C@H](N=[N+]=[N-])[C@@H](CO)O2)c(=O)[nH]c1=O` and `CN(C)c1cn([C@H]2C[C@H](N=[N+]=[N-])[C@@H](CO)O2)c(=O)[nH]c1=O` cannot be ordered by EC50: over 100 µM for the first, over 100 µM for the second.
